Measured values: PMC10636063, “Progesterone activation of β1-containing BK channels involves two binding sites” (Nature Communications, 2023)

Legend:
MCA branches (C57BL/6J) = test: EtOH-induced cerebrovascular constriction in vivo (cranial window); set-up: species or system mouse; settings: 10 µM PROG + 50 mM EtOH infused
Procedure: Eight-12 week-old male and female C57BL/6J mice were anesthetized with a mixture of xylazine/ketamine (12/100 mg per kg) and kept anesthetized for the duration of the experiment with subsequent ketamine doses (50 mg/kg of weight) as needed. A catheter was inserted into the carotid artery so that the infusion went straight to the brain rather than towards the thoracic cavity. An area of the skull was cleared of tissue and thinned to expose the branching arteries originating from the MCA on the side the catheter was inserted, above the zygomatic arch, between the ear and eye of the skull[19],[34]. The exposed arteries branching out from the MCA were monitored using a Leica MC170 HD microscope with a mounted camera (Leica M125 C) connected to a computer monitor. Drugs were diluted to their final concentration in sodium saline (0.9% NaCl) and administered via catheter at 0.1 ml/25 g of weight. Cranial window images before and after drug administration were acquired every 60 seconds for subsequent analysis.

[1] = system: de-endothelialized MCA segments of KCNMB1-/- mice permeabilized with β1 constructs; test: Cerebral artery diameter in vitro, KCNMB1-/- MCA permeabilized with β1 constructs; set-up: species or system mouse; settings: 10 µM; W87F, Y32V or W163I constructs
Excerpt: Eight-12 week-old C57BL/6J and KCNMB1^−/− on C57BL/6 background mice of both sexes were deeply anesthetized with isoflurane via inhalation in a tightly sealed jar. […] For de-endothelialized records, the endothelium was removed by passing an air bubble into the vessel lumen for 90 s[30]. This method has been consistently used by our group and validated using endothelium-dependent versus endothelium-independent vasodilators[16],[26]. Arteries were cannulated as previously described by our group[26],[40]. […] PSS was continuously bubbled with an O2/CO2/N2 (21/5/74%) gas mixture and maintained at 35–37 °C. The artery external wall diameter was measured using the automatic edge-detection function of lonWizard software (lonOptix) via Sanyo VCB-3512T camera (Sanyo Electric Co.). Arteries were first incubated at an intravascular pressure of 10 mm Hg for 10 min. Then intravascular pressure was increased to 60 mmHg and held steady throughout the experiment to induce myogenic tone development and maintenance[19],[30],[51]. […] To determine arterial viability, arterial contractility was probed with a high KCl solution at the end of each experiment. […] Like PSS, the high-KCl solution was continuously bubbled with O2/CO2/N2 (21/5/74%) gas mixture and maintained at 35–37 °C. […]

[2] = system: slo1 (cbv1 isoform)+β4 BK channels; test: Channel activity (NPo) in POPE/POPS bilayers, cbv1+β4; type: biochemical, rat; settings: 10 μM
Excerpt: BK channel-forming slo1 cDNA (cbv1 isoform; AY330293) was cloned from rat cerebral artery SM cells, and inserted into pcDNA3.1 vector as described. BK β1 cDNA (KCNMB1 product; NP_011452; FJ154955) were isolated from rat cerebral artery SM cells and cloned as described. β4 cDNA (KCNMB4; NP_055320; AY028605) were generously provided by Dr. Ligia Toro. CHO cells were transiently transfected with cbv1 ± β1-, or β4-carrying pcDNA3.1 using X-tremeGENE HP (Sigma-Aldrich). […]
Proteins for electrophysiological recordings in artificial lipid bilayers remained untagged. […] BK channel-mediated ionic current was recorded in planar lipid bilayers consisting of a POPE:POPS 3:1 (w/w) mixture. […]
Patch-clamp and bilayer data were analyzed using Clampfit 10.7 software (Molecular Devices). […] Drug-induced NPo changes were determined by comparing baseline NPo (i.e., NPo with the patch/cell perfused with bath solution) to the NPo from the same patch/cell exposed to the agent under study (DMSO/PROG/oxime) dissolved in bath solution. NPo and mean open time values were automatically calculated using Clampfit 10.7, the latter using a 50% threshold detection event.

CC(=O)[C@H]1CC[C@H]2[C@@H]3CCC4=CC(=O)CC[C@]4(C)[C@H]3CC[C@]12C [PROG, Progesterone]
effect on EtOH-induced cerebrovascular constriction (MCA branches (C57BL/6J)): still protected against EtOH-induced cerebrovascular constriction | vasoactive response of MCA segments [1]: failed to dilate MCA segments | action on channel activity (NPo) [2]: readily and robustly activated
